Measurements reported in patent publication EP0395099B1 (priority 1989, dated 1990).
Like-named read-outs stand apart in the source and are kept apart here.

Tested on: Staphylococcus aureus strain FRI-1169
Assay: microbe, parasite or virus in culture
Assay type: cell-based
Conditions: for inhibition at 0.1 % / inhibition at 0.5 % / inhibition at 1 % / inhibition at 10 %: Staphylococcus aureus; for inhibition at 0.1 %: FRI1169, read-out: Reduction in TSST-1 Formation, Example 11: test tampon comprising 0.1% fatty acid ester; for inhibition at 0.5 %: FRI1169, read-out: Reduction in TSST-1 Formation, Example 11: test tampon comprising 0.5% fatty acid ester; for inhibition at 10 %: FRI1169, read-out: Reduction in TSST-1 Formation, Example 11: test tampon comprising 10% fatty acid ester
[1] = Example 11: test tampon comprising 0.1% fatty acid ester
[2] = Example 11: test tampon comprising 0.5% fatty acid ester
[3] = Example 11: test tampon comprising 1.0% fatty acid ester
[4] = Example 11: test tampon comprising 10% fatty acid ester
[5] = FRI1169, read-out: Reduction in TSST-1 Formation, Example 11: test tampon comprising 1.0% fatty acid ester
[6] = Example 8: test tampon comprising 1% by weight of the ester, 24 hours at 37°C
[7] = Example 8: test tampon comprising 1% by weight of the ester, 24 hours at 37°C, ELISA
[8] = FRI1169, read-out: REDUCTION IN TSST-1 FORMATION, Example 8: test tampon comprising 1% by weight of the ester, vs untreated control tampon

SMILES | Log of Final Concn. of S. aureus [1] | Total Amount TSST-1 Produced [1] | Log of Final Concn. of S. aureus [2] | Total Amount TSST-1 Produced [2] | Log of Final Concn. of S. aureus [3] | Total Amount TSST-1 Produced [3] | Log of Final Concn. of S. aureus [4] | Total Amount TSST-1 Produced [4] | inhibition at 0.1 % [%] | inhibition at 0.5 % [%] | inhibition at 1 % [5] [%] | inhibition at 10 % [%] | FINAL CONCENTRATION OF S. AUREUS CELLS, log to the base 10 [6] | Total Amount TSST-1 Produced [7] | inhibition at 1 % [8] [%]
CCCCCCCCCCCC(=O)OCC(C)O (stereo not drawn) [Tampon 1, 2-Hydroxy-1-propyl laurate] | 9.1 /ml | 7.93 »g | 7.64 /ml | 1.25 »g | 8.79 /ml | 0.09 »g | 8.37 /ml | 0.05 »g | ~7 | 85 | ~99 | 99 | – | – | –
CCCCCCCCCCCC(=O)OCCOCCO [Tampon 2, Diethylene glycol monolaurate] | 8.45 /ml | 0.12 »g | 7.40 /ml | 0.01 »g | 6.13 /ml | 0.01 »g | 7.42 /ml | 0.11 »g | 99 | 99 | ~99 | 99 | – | – | –
CCCCCCCCCCCC(=O)OCC(O)CO (stereo not drawn) [Tampon No. 2, Glyceryl monolaurate] | – | – | – | – | – | – | – | – | – | – | – | – | 6.81 /ml | 0.14 »g | 99.1
CCCCCCCCCCCCCC(=O)OCC(O)CO (stereo not drawn) [Tampon No. 3, Glyceryl monomyristate] | – | – | – | – | – | – | – | – | – | – | – | – | 8.70 /ml | 0.58 »g | 96.6
CCCCCCCCCCCCCCCC(=O)OCC(O)CO (stereo not drawn) [Tampon No. 4, Glyceryl monopalmitate] | – | – | – | – | – | – | – | – | – | – | – | – | 9.15 /ml | 1.75 »g | 89.7
CCCCCCCCCCCCCCCCCC(=O)OCC(O)CO (stereo not drawn) [Tampon No. 5, Glyceryl monostearate] | – | – | – | – | – | – | – | – | – | – | – | – | 8.78 /ml | 6.43 »g | 60
CCCCCCCC/C=C\CCCCCCCC(=O)OCC(O)CO (stereo not drawn) [Tampon No. 6, Glyceryl monooleate] | – | – | – | – | – | – | – | – | – | – | – | – | 8.83 /ml | 1.01 »g | 94.1
